Consider 18 molecules from US6472404B1 (priority 2000, dated 2002).

For one data set, the system named is HIV-HXB2. Nature of the data set: Antiviral assay: protection of HIV-infected MT4 cells from cell death (MTT). The note with it: Human immunodeficiency virus 1, 120 h; MT4 cells infected with HIV-HXB2; 5 days; MTT viability; rounded to nearest whole number. In kind it is cell-based. On the procedure: Methods 20: 309-321]. The method is based on the ability of compounds to protect HIV-infected T lymphoblastoid cells (MT4 cells) from cell-death mediated by the infection. The endpoint of the assay was calculated as the concentration of compound at which the cell viability of the culture was preserved by 50% (‘50% inhibitory concentration’, IC50). The cell viability of a culture was determined by the uptake of soluble, yellow 3-[4,5-dimethylthiazol-2-yl]-2,5-diphenyltetrazolium bromide (MTT) and its reduction to a purple insoluble formazan salt. After solubilization, spectrophotometric methods were employed to measure the amount of formazan product.
MT4 cells were prepared to be in logarithmic-phase growth and a total of 2×10^6 cells infected with either the wild type or site directed mutant clones of HIV-HXB2 at a multiplicity of approximately 0.0001 infectious units of virus per cell in a total volume of between 200-500 μl. The cells were incubated with virus for one hour at 37° C. then washed in 0.01 M phosphate buffered saline, pH 7.2, and resuspensed in culture medium for incubation in culture with serial dilutions of test compound. The culture medium used was RPMI 1640 without phenol red, supplemented with penicillin, streptomycin, L-glutamine and 10% fetal calf serum (GM10).
Test compounds were prepared as 2 mM solutions in dimethyl sulphoxide (DMSO). Four replicate, serial 2-fold dilutions in GM10 were then prepared and 50 microliter amounts placed in 96-well plates over a final concentration range of […]. Fifty microliters GM10 and 3.75×10^4 infected cells were then added to each well. Control cultures containing no cells (blank), uninfected cells (100% viability; 4 replicates) and infected cells without compound (total virus-mediated cell death; 4 replicates) were also prepared. The cultures were then incubated at 37° C. in a humidified atmosphere of 5% CO2 in air for 5 days.
A fresh solution of 5 mg/mL MTT was prepared in 0.01 M phosphate buffered saline, pH 7.2 and 20 μL added to each culture. The cultures were further incubated as before for 2 hours. They were then mixed by pipetting up and down, and 170 microliters of Triton X-100 in acidified isopropanol (10% v/v Triton X-100 in 1:250 mixture of concentrated HCl in isopropanol) were added and the cultures were mixed again by pipetting up and down. When the formazan deposit was fully solubilized by further mixing, the absorbance (OD) of the cultures was measured at 540 nm and 690 nm wavelength (690 nm readings were used as blanks for artefacts between wells). The percent protection for each treated culture was then calculated from the equation:
OD drug-treated cultures)−(OD untreated virus control cultures) % Protection=100%
(OD uninfected cultures)−(OD untreated virus control cultures)
The IC50 was then obtained from graph plots of percentage protection versus log10 drug concentration.

The target of the next data set is HIV-1 protease (Human immunodeficiency virus type 1 group M subtype B, UniProt P04585). Nature of the data set: HIV protease inhibition assay (quenched fluorogenic substrate, fluorescence energy transfer).

Protocol for HIV-1 protease: HIV protease inhibitory activity was assessed using an adaptation of the method of Matayoshi. et al. [Matayoshi E. D. et al (1990).
Crude HIV-1 protease was prepared from E. coli pPTΔN. Cultures were grown at 30° in M9 medium supplemented with 0.2% casamino acids, 100 μg/ml ampicillin and 25 μg/ml thiamine until OD600=0.5-0.6, and the temperature was raised to 42° to induce expression of the protease. After 1.5 hours, the cells were harvested and the pellets stored at −70° until required.
The protease was prepared by lysis of the cells in a French pressure cell followed by precipitation of the enzyme with ammonium sulfate at 30% saturation.
The assay buffer comprised 0.1M sodium acetate pH 4.7, 8 mM EDTA, 0.2 M NaCl.
Tubes were incubated for 2 hours at 37° and the reaction was terminated by the addition of 500 μl of a 2:1 mixture of DMSO:50 mM Tricine pH 8.5. Fluorescence was measured in a fluorescence spectrophotometer, excitation λ=340 nm, emission λ=492 nm.

As usually defined, the melting point is the temperature, or range, at which the solid turns liquid. On to `CC(C)(C)NC(=O)[C@@H]1C[C@@H]2CCCC[C@@H]2CN1C[C@@H](O)[C@H](Cc1ccccc1)NC(=O)[C@@H](Nc1nc(CO)cs1)C(C)(C)S(C)(=O)=O`, for which the melting point came to 126 °C. Still for that read-out and setting: to `CC(C)(C)NC(=O)[C@@H]1C[C@@H]2CCCC[C@@H]2CN1C[C@@H](O)[C@H](Cc1ccccc1)NC(=O)[C@@H](n1cc[nH]c1=O)C(C)(C)S(C)(=O)=O` belongs 228 to 230 °C. The molecule `CC(C)(C)NC(=O)[C@@H]1C[C@@H]2CCCC[C@@H]2CN1C[C@@H](O)[C@H](Cc1ccccc1)NC(=O)[C@@H](NC(=O)COc1cccc(F)c1)C(C)(C)S(C)(=O)=O` registered a melting point of 197 to 199 °C. The molecule `CC(C)(C)NC(=O)[C@@H]1C[C@@H]2CCCC[C@@H]2CN1C[C@@H](O)[C@H](Cc1ccccc1)NC(=O)[C@@H](NS(C)(=O)=O)C(C)(C)S(C)(=O)=O` gave a melting point of 135 to 160 °C. The IC50 is the concentration at which inhibition is half-maximal. Read a high IC50 as weaker potency. On to `CC(C)(C)NC(=O)[C@@H]1C[C@@H]2CCCC[C@@H]2CN1C[C@@H](O)[C@H](Cc1ccccc1)NC(=O)[C@@H](NC(=O)COc1cccnc1)C(C)(C)S(C)(=O)=O` [Example 3, N-tert-butyl-1,2,3,4,4a(S),5,6,7,8a(S)-decahydro-2-[2(R)-hydroxy-3(S)-[[3-(methanesulfonyl)-N-[2-(3-pyridyloxy)acetyl]-L-valyl]amino]-4-phenylbutyl]-3(S)-isoquinolinecarboxamide], for which the half-inhibitory concentration (IC50) in the data set on HIV-HXB2 came to 17 nM; on HIV-1 protease it was 0.6 nM. In the same order, the values of `CC(C)(C)NC(=O)[C@@H]1C[C@@H]2CCCC[C@@H]2CN1C[C@@H](O)[C@H](Cc1ccccc1)NC(=O)[C@@H](NC(=O)c1cccnc1)C(C)(C)S(C)(=O)=O` [Example 7, N-tert-butyl-1,2,3,4,4a(S),5,6,7,8,8a(S)-decahydro-2-[2(R)-hydroxy-3(S)-[[3-(methanesulfonyl)-N-[(3-pyridyl)carbonyl]-L-valyl]amino]-4-phenylbutyl]-3(S)-isoquinolinecarboxamide] are 21 nM and 2.3 nM. In the same order, the values of `CC(C)(C)NC(=O)[C@@H]1C[C@@H]2CCCC[C@@H]2CN1C[C@@H](O)[C@H](Cc1ccccc1)NC(=O)[C@@H](NC(=O)c1ccc(Cl)nc1)C(C)(C)S(C)(=O)=O` [Example 16, N-tert-Butyl-2-[3-(S)-[[N-[(6-chloro-3-pyridyl)carbonyl]-3-(methanesulfonyl)-L-valyl]amino]-2(R)-hydroxy-4-phenylbutyl]-1,2,3,4,4a(S),5,6,7,8,8a(S)-decahydro-3(S)-isoquinolinecarboxamide] are 12 nM and 1 nM. In the same order, the values of `CC(C)(C)NC(=O)[C@@H]1C[C@@H]2CCCC[C@@H]2CN1C[C@@H](O)[C@H](Cc1ccccc1)NC(=O)[C@@H](NC(=O)c1ccoc1)C(C)(C)S(C)(=O)=O` [Example 28, N-tert-Butyl-2-[3-(S)-[[N-(3-furoyl)-3-(methanesulfonyl)-L-valyl]amino]-2(R)-hydroxy-4-phenylbutyl]-1,2,3,4,4a(S),5,6,7,8,8a(S)-decahydro-3(S)-isoquinolinecarboxamide] are 21 nM and 1 nM. Consider `CC(C)(C)NC(=O)[C@@H]1C[C@@H]2CCCC[C@@H]2CN1C[C@@H](O)[C@H](Cc1ccccc1)NC(=O)[C@@H](NC(=O)c1cccc(F)c1)C(C)(C)S(C)(=O)=O` [Example 40, N-tert-Butyl-2-[3-(S)-[[N-(3-fluorobenzoyl)-3-(methanesulfonyl)-L-valyl]amino]-2(R)-hydroxy-4-phenylbutyl]-1,2,3,4,4a(S),5,6,7,8,8a(S)-decahydro-3(S)-isoquinolinecarboxamide], for which the IC50 in the data set on HIV-HXB2 is 19 nM; at HIV-1 protease, 1.4 nM. In the same order, the values of `CC(C)NCC(=O)N[C@H](C(=O)N[C@@H](Cc1ccccc1)[C@H](O)CN1C[C@H]2CCCC[C@H]2C[C@H]1C(=O)NC(C)(C)C)C(C)(C)S(C)(=O)=O` [Example 92, N-tert-Butyl-1,2,3,4,4a(S),5,6,7,8,8a(S)-decahydro-2-[2(R)-hydroxy-3(S)-[[N-[2-(isopropylamino)acetyl]-3-(methanesulfonyl)-L-valyl]amino]-4-phenylbutyl]-3(S)-isoquinolinecarboxamide] are 33 nM and 4 nM.

Take `CC(C)(C)NC(=O)[C@@H]1C[C@@H]2CCCC[C@@H]2CN1C[C@@H](O)[C@H](Cc1ccccc1)NC(=O)[C@@H](NC(=O)CNc1ccccc1)C(C)(C)S(C)(=O)=O` [Example 93, N-tert-Butyl-1,2,3,4,4a(S),5,6,7,8,8a(S)-decahydro-2-[2(R)-hydroxy-3(S)-[3-(methanesulfonyl)-N-(N-phenylglycyl)-L-valyl]amino]-4-phenylbutyl-3(S)-isoquinolinecarboxamide]: the figures for the 50% inhibitory concentration (IC50) with HIV-HXB2 and on HIV-1 protease were 8 nM and 0.5 nM, respectively. Take `CC(C)(C)NC(=O)[C@@H]1C[C@@H]2CCCC[C@@H]2CN1C[C@@H](O)[C@H](Cc1ccccc1)NC(=O)[C@@H](NC(=O)N1CCOCC1)C(C)(C)S(C)(=O)=O` [Example 106, N-tert-Butyl-1,2,3,4,4a(S),5,6,7,8,8a(S)-decahydro-2-[2(R)-hydroxy-3(S)-[[3-(methanesulfonyl)-N-(morpholinocarbonyl)-L-valyl]amino]-4 phenylbutyl]-3(S)-isoquinolinecarboxamide]: the results for the half-inhibitory concentration (IC50) in the data set with HIV-HXB2 and on HIV-1 protease were 60 nM and 10.7 nM, respectively. In the same order, the values of `CC(C)(C)NC(=O)[C@@H]1C[C@@H]2CCCC[C@@H]2CN1C[C@@H](O)[C@H](Cc1ccccc1)NC(=O)[C@@H](NCc1ccccc1)C(C)(C)S(C)(=O)=O` [Example 112, 2-[3(S)-[[N-Benzyl-3-(methanesulfonyl)-L-valyl]amino]-2(R)-hydroxy-4-phenylbutyl]-N-tert-butyl-1,2,3,4,4a(S),5,6,7,8,8a(S)-decahydro-3(S)-isoquinolinecarboxamide] are 94 nM and 7.5 nM. As to `Cc1csc(N[C@H](C(=O)N[C@@H](Cc2ccccc2)[C@H](O)CN2C[C@H]3CCCC[C@H]3C[C@H]2C(=O)NC(C)(C)C)C(C)(C)S(C)(=O)=O)n1` [Example 138, N-tert-Butyl-1,2,3,4,4a(S),5,6,7,8,8a(S)-decahydro-2-[2(R)-hydroxy-3(S)-[[3-(methanesulfonyl)-N-(4-methyl-2-thiazolyl)-L-valyl]amino]-4-phenylbutyl]-3(S)-isoquinolinecarboxamide], the concentration for half-maximal inhibition (IC50) amounted to 65 nM with HIV-HXB2 and 7.8 nM at HIV-1 protease. As for `CC(C)(C)NC(=O)[C@@H]1C[C@@H]2CCCC[C@@H]2CN1C[C@@H](O)[C@H](Cc1ccccc1)NC(=O)[C@@H](NC(=O)COc1ccccn1)C(C)(C)S(C)(=O)=O` [Example 152], the 50% inhibitory concentration (IC50) was determined as 17 nM with HIV-HXB2 and 1.2 nM against HIV-1 protease. On to `CC(C)(C)NC(=O)[C@@H]1C[C@@H]2CCCC[C@@H]2CN1C[C@@H](O)[C@H](Cc1ccccc1)NC(=O)[C@@H](NC(=O)COc1cccnn1)C(C)(C)S(C)(=O)=O` [Example 154], for which the IC50 stood at 16 nM in the data set with HIV-HXB2 and 0.5 nM on HIV-1 protease. In the same order, the values of `CC(C)(C)NC(=O)[C@@H]1C[C@@H]2CCCC[C@@H]2CN1C[C@@H](O)[C@H](Cc1ccccc1)NC(=O)[C@@H](NC(=O)NCc1ccccc1)C(C)(C)S(C)(=O)=O` [Example 168, 2-[3(S)-[[N-(Benzylcarbamoyl)-3-(methanesulfonyl)-L-valyl]amino]-2(R)-hydroxy-4-phenylbutyl]-N-tert-butyl-1,2,3,4,4a(S),5,6,7,8,8a(S)-decahydro-3(S)-isoquinolinecarboxamide] are 16 nM and 0.5 nM.

Take `CN(Cc1cccnc1)C(=O)N[C@H](C(=O)N[C@@H](Cc1ccccc1)[C@H](O)CN1C[C@H]2CCCC[C@H]2C[C@H]1C(=O)NC(C)(C)C)C(C)(C)S(C)(=O)=O` [Example 170, N-tert-Butyl-1,2,3,4,4a(S),5,6,7,8,8a(S)-decahydro-2-[2(R)-hydroxy-3(S)-[[3-(methanesulfonyl)-N-[N-methyl-N-[(3-pyridyl)methyl]carbamoyl]-L-valyl]amino]-4-phenylbutyl]-3(S)-isoquinolinecarboxamide]: the IC50 with HIV-HXB2 is 13 nM; against HIV-1 protease, 1 nM.
